Data on 5 molecules can be found in publication PMC12525602, “Identification of Selective α-Glucosidase Inhibitors via Virtual Screening with Machine Learning” (Molecules, 2025).

Like-named read-outs stand apart in the source and are kept apart here. Bounds are passed on as bounds.

The target in experiment [1] is α-amylase. The arrangement: method as in ref 14 (Lim et al. 2022). Particulars: ref 14 (Lim et al. 2022); cited from earlier work.
Experiment [2] has as its target α-glucosidase. Details: method as in ref 14 (Lim et al. 2022). The following applies: ref 14 (Lim et al. 2022); cited from earlier work.
Experiment [3] addresses T1, α-glucosidase (Saccharomyces cerevisiae, UniProt P53341).
T1 construct: purchased Sigma-Aldrich Co. (St. Louis, MI, USA)
Put plainly: In vitro α-glucosidase activity assay (pNαGP, absorbance 405 nm). The experiment is classed as biochemical. The following applies: for inhibition at 250 µM: read-out: inhibition of α-glucosidase. As for the experimental part: (§1) The inhibitors used in this study were purchased from the ChemDiv website. Unless otherwise stated, all other reagents used in this experiment were analytically pure reagents purchased from Sigma-Aldrich Co. (St. Louis, MI, USA).
The in vitro α-glucosidase activity assay was determined spectrophotometrically as previously described with only minor modifications. A phosphate-buffer solution at pH 6.8 was configured to obtain 0.5 U/mL of α-glucosidase and 0.6 mM of […] (pNαGP). […] Gradient dilution with phosphate-buffer solution was performed to obtain sample solutions of different concentrations. First, different concentrations of compounds (10 µL), enzyme solution (40 µL) and potassium phosphate buffer (100 µL) were pre-incubated in a 96-well plate for 10 min at 37 °C. Then, 50 µL of substrate (pNαGP, 0.6 mM) was added to each microtiter well and incubated for 20 min at 37 °C, and the absorbance at 405 nm was measured to detect the change in enzyme activity.
The enzyme inhibitory activity of the tested compounds was calculated as follows: α−glucosidase inhibition rate%=Abs control−Abs sample/Abs control×100
(§2) The IC50 values of the tested compounds were calculated using nonlinear fitting (logit method).

Experiment [4] deals with T2, α-amylase (Sus scrofa, UniProt P00690).
T2 construct: α-amylase isolated from porcine pancreas; purchased Sigma-Aldrich Co. (St. Louis, MI, USA); host or cells: porcine pancreas
T2 sequence (P00690 16-511): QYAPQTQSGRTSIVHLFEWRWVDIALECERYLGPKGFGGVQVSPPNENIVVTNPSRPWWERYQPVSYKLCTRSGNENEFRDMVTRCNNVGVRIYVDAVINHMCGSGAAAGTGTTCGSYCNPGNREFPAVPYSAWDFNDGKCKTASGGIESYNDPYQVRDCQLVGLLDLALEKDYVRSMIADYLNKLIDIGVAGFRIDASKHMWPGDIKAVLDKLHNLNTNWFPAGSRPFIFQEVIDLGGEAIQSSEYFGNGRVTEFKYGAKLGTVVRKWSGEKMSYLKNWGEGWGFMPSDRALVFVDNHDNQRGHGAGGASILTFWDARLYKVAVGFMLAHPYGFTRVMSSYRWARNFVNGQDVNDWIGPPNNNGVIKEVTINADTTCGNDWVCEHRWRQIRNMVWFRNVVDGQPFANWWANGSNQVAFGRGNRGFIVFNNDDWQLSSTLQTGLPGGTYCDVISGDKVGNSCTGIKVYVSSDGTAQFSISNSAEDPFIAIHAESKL
The experiment can be described thus: In vitro α-amylase activity assay (G3-CNP, absorbance 405 nm). Particulars: for inhibition of α-amylase: […] µM. The arrangement: inhibition of α-amylase: dose or concentration left out as unconfirmed. Format: biochemical, porcine. Here is the method:
as §1
The in vitro α-amylase activity assay was determined spectrophotometrically as previously described with only minor modifications. A phosphate-buffer solution at pH 6.8 was configured to obtain α-amylase 5 U/mL and 2-chloro-4-nitrophenyl α-D-maltotrioside (G3-CNP) 0.6 mM. […] Gradient dilution with phosphate-buffer solution was performed to obtain sample solutions of different concentrations.
as §2

The target of experiment [5] is T1, α-glucosidase. The experiment can be described thus: biochemical. Format: biochemical. As for the experimental part: To further investigate the inhibition kinetics of the candidate compounds, α-glucosidase activity was determined at different substrate concentrations. The Lineweaver-Burk expression method in Equation (1) was used to test the reaction of a series of compounds with the substrate pNαGP, and the values of maximum velocity (Vmax) and Michaelis-Menten constant (Km) were calculated.(1) 1/v=Km/Vmax1/[S]+1/Vmax where Vmax and Km are the maximum velocity of the enzyme and the Michaelis-Menten constant in the absence of inhibitor, respectively. [S] is the concentration of substrate and inhibitor.(2) Slope=Km/Vmax+Km/Vmax·KiI where v is the initial reaction rate, Vmax is the maximum initial reaction rate, [I] is the concentration of […], and Km is the Michaelis-Menten constant.

Experiment [6] has as its target T1, α-glucosidase. Put plainly: Fluorescence quenching experiment (Stern-Volmer). The experiment is classed as binding. Particulars: for Kd: Ka (binding constant); for Kq (bimolecular quenching constant): given as number×10 with exponent 12. As for the experimental part: The fluorescence quenching experiment was modified somewhat based on previous studies. Fluorescence was determined by titrating α-glucosidase (1.0 mL, 2 U/mL) with different concentrations of inhibited solutions (1.0 mL, 0–200 mM) and left to equilibrate for 5 min. […] Fluorescence burst analysis was performed based on the Stern-Volmer (3) equation.(3) F0/F=1+Kqτ0Q=1+KsvQ
F and F0 are the fluorescence intensities with and without inhibitor, respectively, Ksv is the Stern-Volmer bursting constant, Kq is the bimolecular bursting constant, and [Q] is the concentration of inhibitor.
When the bursting mode conforms to static bursting, the binding constant Ka and the number of binding sites for each enzyme can be calculated from Equation (4).(4) logF0−F/F=logKa+nlogQ
Ka is the binding constant and n is the number of binding sites.
The thermodynamic parameters ∆H, ∆S, and ∆G denote the change in heat, entropy, and free energy, respectively.

Experiment [7] has as its target T1, α-glucosidase. The experiment can be described thus: Synchronous fluorescence spectroscopy (RSQF). The experiment is classed as binding. As for the experimental part:
Changes in the microenvironment of tyrosine (Tyr) and tryptophan (Trp) residue fluorophores were detected simultaneously. The excitation and emission wavelength intervals were set to 15 nm and 60 nm, respectively, and the synchronized fluorescence spectra from 260 to 320 nm were determined. The synchronized fluorescence burst ratio (RSFQ) was calculated as follows:(7) RSQF=1−F/F0

Experiment [8] addresses α-amylase. The arrangement: method as in ref 15 (Sun et al. 2017). The following applies: ref 15 (Sun et al. 2017); cited from earlier work.
For experiment [9], the target named is α-glucosidase. Details: method as in ref 15 (Sun et al. 2017). Particulars: ref 15 (Sun et al. 2017); cited from earlier work.

T1 sequence (P53341 whole entry): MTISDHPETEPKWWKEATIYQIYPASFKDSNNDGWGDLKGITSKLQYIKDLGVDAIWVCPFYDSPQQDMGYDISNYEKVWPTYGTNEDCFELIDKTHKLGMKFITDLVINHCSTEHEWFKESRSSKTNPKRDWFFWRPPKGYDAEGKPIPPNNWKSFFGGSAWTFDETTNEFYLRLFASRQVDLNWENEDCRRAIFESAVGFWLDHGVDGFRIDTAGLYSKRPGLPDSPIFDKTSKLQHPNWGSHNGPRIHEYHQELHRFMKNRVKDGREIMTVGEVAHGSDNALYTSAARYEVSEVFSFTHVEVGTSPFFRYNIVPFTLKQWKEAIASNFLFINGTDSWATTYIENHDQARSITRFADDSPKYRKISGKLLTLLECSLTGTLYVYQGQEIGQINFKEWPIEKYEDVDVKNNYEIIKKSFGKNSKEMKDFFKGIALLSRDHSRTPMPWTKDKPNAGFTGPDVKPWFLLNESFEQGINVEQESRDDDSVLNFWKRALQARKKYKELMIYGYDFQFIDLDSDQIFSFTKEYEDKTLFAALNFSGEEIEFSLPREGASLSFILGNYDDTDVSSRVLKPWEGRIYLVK

With `O=c1c(O)c(-c2ccc(O)c(O)c2)oc2ccccc12` [3′,4′-dihydroxyflavonol], the IC50 on α-amylase [1] is 119 µM; on α-glucosidase [2], 34.3 µM.
`O=[N+]([O-])c1ccccc1C1Oc2ccccc2C2CC(c3ccccc3)=NN21` (stereo not drawn) [K411]: the 50% inhibitory concentration (IC50) was 67.8 ± 2.18 µM on α-glucosidase [3] and greater than 500 µM against α-amylase [4]. In addition, the inhibition at 250 µM on α-glucosidase [3] is roughly 100%. Moreover, the “inhibition of α-amylase” value at α-amylase [4] is recorded as “minimal inhibition”. The molecule further gave a Ki at α-glucosidase [5] of 61.3 ± 14.4 µM. For the same molecule, on α-glucosidase [5], the Type of inhibition entry is listed as “Competitive”. Further, the Vmax was 8.94±0.06 ×10-1µM/min on α-glucosidase [5] ([I] 7.5 μM); 8.85±0.02 ×10-1µM/min on α-glucosidase [5] ([I] 15 μM); 8.62±0.04 ×10-1µM/min at α-glucosidase [5] ([I] 30 μM); 8.81±0.03 ×10-1µM/min on α-glucosidase [5] ([I] 50 μM); 8.43±0.04 ×10-1µM/min on α-glucosidase [5] ([I] 70 μM). The Kd is 1.98 µM on α-glucosidase [6] (T 300.15 K), 2.07 µM on α-glucosidase [6] (T 305.15 K) and 3.91 µM at α-glucosidase [6] (T 310.15 K). The figures for the “Ksv (quenching constant)” value on α-glucosidase [6] (T 300.15 K), at α-glucosidase [6] (T 305.15 K) and on α-glucosidase [6] (T 310.15 K) were 10.50 ±0.01 104 /M, 7.67 ±0.01 104 /M and 5.51 ±0.01 104 /M, respectively. For the same molecule, the “n (number of binding sites)” value at α-glucosidase [6] (T 300.15 K) amounted to 1.15; on α-glucosidase [6] (T 305.15 K), 1.17; at α-glucosidase [6] (T 310.15 K), 1.15. For the same molecule, the “Kq (bimolecular quenching constant)” value is given as 7.67 ×10^12 (M·S)-1 on α-glucosidase [6] (T 305.15 K) and 5.51 ×10^12 (M·S)-1 at α-glucosidase [6] (T 310.15 K). Besides, at α-glucosidase [7], the “RSQF values, Trp (Δλ = 60 nm) versus Tyr (Δλ = 15 nm)” value is recorded as “significantly higher”.
For `O=C1Nc2ccc(Br)cc2/C1=C\c1nc2ccccc2c(=O)n1-c1ccc(C(=O)O)cc1` [K413], at α-glucosidase [3], the concentration for half-maximal inhibition (IC50) came to 66.3 ± 7.17 µM and the inhibition at 250 µM is roughly 100%. In addition, on α-amylase [4], the IC50 is greater than 500 µM and the “inhibition of α-amylase” value was “minimal inhibition”. For the same molecule, at α-glucosidase [5], the inhibitory constant (Ki) came to 59.7 ± 10.6 µM and the Type of inhibition entry is reported as “Competitive”. The Vmax at α-glucosidase [5] ([I] 7.5 μM) is 11.41±0.04 ×10-1µM/min. The Vmax on α-glucosidase [5] ([I] 15 μM) is 11.35±0.08 ×10-1µM/min. Besides, on α-glucosidase [5] ([I] 30 μM), the Vmax was 10.92±0.06 ×10-1µM/min. Further, at α-glucosidase [5] ([I] 50 μM), the Vmax was 10.84±0.07 ×10-1µM/min. For the same molecule, on α-glucosidase [6] (T 300.15 K), binding was put at a Kd of 1.59 µM, the “Ksv (quenching constant)” value is listed as 11.46 ±0.01 104 /M and the “n (number of binding sites)” value stood at 1.17. Also, at α-glucosidase [6] (T 305.15 K), the Kd was 1.62 µM, the “Ksv (quenching constant)” value is on record as 7.99 ±0.01 104 /M, the “n (number of binding sites)” value came to 1.20 and the “Kq (bimolecular quenching constant)” value is given as 7.99 ×10^12 (M·S)-1. On α-glucosidase [6] (T 310.15 K), the Kd was 3.94 µM, the “Ksv (quenching constant)” value is 6.87 ±0.01 104 /M, the “n (number of binding sites)” value amounted to 1.14 and the “Kq (bimolecular quenching constant)” value is given as 6.87 ×10^12 (M·S)-1. For the same molecule, the “RSQF values, Trp (Δλ = 60 nm) versus Tyr (Δλ = 15 nm)” value at α-glucosidase [7] was “significantly higher”.
For the molecule `COc1ccc(-c2nn(-c3ccccc3)c(C)c2-c2cc(C#N)c(C#N)cc2O)cc1` [K802], the results for the IC50 against α-glucosidase [3] and against α-amylase [4] were 74.7 ± 4.1 µM and greater than 500 µM, respectively. Further, on α-glucosidase [3], the inhibition at 250 µM is roughly 100%. Further, the “inhibition of α-amylase” value at α-amylase [4] is listed as “minimal inhibition”. In addition, the Type of inhibition result at α-glucosidase [5] is reported as “Competitive”. The Vmax is listed as 9.17±0.04 ×10-1µM/min at α-glucosidase [5] ([I] 7.5 μM); 9.83±0.06 ×10-1µM/min at α-glucosidase [5] ([I] 15 μM); 9.35±0.03 ×10-1µM/min on α-glucosidase [5] ([I] 30 μM); 9.62±0.05 ×10-1µM/min at α-glucosidase [5] ([I] 50 μM); 9.48±0.02 ×10-1µM/min at α-glucosidase [5] ([I] 70 μM). Further, the values for the Kd on α-glucosidase [6] (T 300.15 K), at α-glucosidase [6] (T 305.15 K) and on α-glucosidase [6] (T 310.15 K) were 2.51 µM, 19.6 µM and 23.8 µM, respectively. In addition, the figures for the “Ksv (quenching constant)” value on α-glucosidase [6] (T 300.15 K), on α-glucosidase [6] (T 305.15 K) and on α-glucosidase [6] (T 310.15 K) were 0.59 ±0.02 104 /M, 0.42 ±0.04 104 /M and 0.39 ±0.02 104 /M, respectively. The “n (number of binding sites)” value at α-glucosidase [6] (T 300.15 K) is on record as 1.16; on α-glucosidase [6] (T 305.15 K) it was 0.99; at α-glucosidase [6] (T 310.15 K), 0.79. Also, the “Kq (bimolecular quenching constant)” value on α-glucosidase [6] (T 300.15 K) is 0.59 ×10^12 (M·S)-1; at α-glucosidase [6] (T 305.15 K) it was 0.42 ×10^12 (M·S)-1; at α-glucosidase [6] (T 310.15 K), 0.39 ×10^12 (M·S)-1. Further, the “RSQF values, Trp (Δλ = 60 nm) versus Tyr (Δλ = 15 nm)” value at α-glucosidase [7] is on record as “significantly higher”.
As for `O=C(/C=C/c1ccc(O)cc1)c1c(O)cc(O)cc1O` [chalconaringenin], the concentration for half-maximal inhibition (IC50) on α-amylase [8] is greater than 100 µM; at α-glucosidase [9] it was 20 µM.

In general, IC50 refers to the midpoint of a concentration-inhibition curve. A word on the inhibition: it is the drop in the measured response relative to a control, in per cent. The Ki is a measure of affinity in units of concentration, obtained from inhibition or displacement. Usually Kd stands for the concentration at which binding is half-saturated.
